Measurements: patent US7341721B2 (The Board of Trustees of the University of Arkansas, priority 2002, dated 2008)

Tests used:
[1] = system: myeloma cell lines; conditions: RPMI-8226 and U266; cited from earlier work
[2] = system: myeloma cell lines; assay: Apoptosis assay (Annexin V/PI staining, TUNEL), myeloma cell lines; format: cell-based, human; conditions: for protection from β2m-induced apoptosis / spontaneous apoptosis of myeloma cells: IL-6 20 ng/ml or IGF-I 50 ng/ml, ARK-RS and RPMI-8226; for protection from B2 anti-β2m antibody-induced apoptosis: cytokines added to myeloma cells
Protocol: (§1) The fraction of apoptotic cells was determined by staining cells with Annexin V-fluorescein isothiocyanate (FITC) (Immunotech) and propidium iodide (PI) (Sigma) (Vermes, I., et al., J. Immunol. Methods, 184:39-51, 1995). […] 5 μl of Annexin V-FITC (BD PharMingen, San Diego, Calif.) were added and incubated for 30 minutes. After washing and re-suspension of the cells in the binding buffer, 5 μl of PI were added, and the cells were ready for analysis. Percentages of apoptotic cells are the sum of PI^−/Annexin V^+ (newly apoptotic) and PI^+/Annexin V^+ (already apoptotic) cell populations (Vermes, I., et al., J. Immunol. Methods, 184:39-51, 1995).
A flow cytometry-based cell death detection kit (APO-BRDU) was purchased from BD PharMingen, and experiments were performed according to the manufacturer's protocol.

[3] = system: caspase-3 and PARP; assay: Western blot of caspase-3 activation and PARP cleavage in myeloma cells; format: cell-based, human; conditions: Z-VAD-FMK 100 μM; ARK-RS and RPMI-8226
Protocol: Cells were cultured with or without 40 μg/ml β2m for 48 hours, harvested, washed, and lysed with lysis buffer (50 mM Tris, pH 7.5, 140 mM NaCl, 5 mM EDTA, 5 mM NaN3, 1% Triton-X-100, 1% NP-40, 1× protease inhibitor cocktail). […] The membrane was stripped and reprobed with anti-β-actin antibody (Santa Cruz Biotechnology) to ensure equivalent protein loading. For detection of caspase-3 activation and cleavage of poly(ADP-ribose) polymerase (PARP), the membranes were immunoblotted with anti-caspase-3 antibody (Santa Cruz Biotechnology) or anti-PARP antibody (BD PharMingen). Secondary antibodies conjugated to horseradish peroxidase were used for detection, followed by enhanced chemiluminescence (Bio-Rad Laboratories, Hercules, Calif.) and autoradiography.

[4] = system: Jurkat cells; assay: Apoptosis in Jurkat cells; format: cell-based; conditions: Z-VAD-FMK 100 μM; antibody 100 ng/ml, 18-hour culture
Protocol: as §1
A pan-caspase inhibitor, z-Val-Ala-Asp-fluoromethyl ketone (Z-VAD-FMK) or caspase I inhibitor V, was purchased from Calbiochem-Novabiochem. This peptide was dissolved in dimethylsulfoxide (DMSO, Sigma) and added to cell suspensions at a final concentration of 100 μM (final DMSO concentration of 0.25%).
When the pan-caspase inhibitor Z-VAD-FMK was added to the culture, activation and processing of caspase-3 (data not shown), cleavage of PARP (FIG. 5B), and apoptosis (FIG. 5C) were inhibited.

Compound | sensitivity of myeloma cell lines to melphalan [1] | protection from β2m-induced apoptosis [2] | spontaneous apoptosis of myeloma cells [2] | protection from B2 anti-β2m antibody-induced apoptosis [2] | effect on β2m-induced apoptosis ([2]; Z-VAD-FMK 100 μM, RPMI-8226, β2m 40 μg/ml, 48-hour culture) | effect on β2m-induced caspase-3 activation and PARP cleavage [3] | effect on anti-Fas antibody 7C11-induced apoptosis [4]
N[C@@H](Cc1ccc(N(CCCl)CCCl)cc1)C(=O)O [melphalan] | sensitive |  |  |  |  |  | 
IGF-I: recombinant human IGF-I (R&D Systems), growth and survival factor for myeloma cells |  | only IL-6 protected myeloma cells | reduced the percentage of cells undergoing spontaneous apoptosis | do not protect myeloma cells |  |  | 
IL-6: recombinant human IL-6 (R&D Systems), growth and survival factor for myeloma cells |  | protected myeloma cells from β2m-induced apoptosis | reduced the percentage of cells undergoing spontaneous apoptosis | do not protect myeloma cells |  |  | 
z-Val-Ala-Asp-fluoromethyl ketone [Z-VAD-FMK] |  |  |  |  | inhibited | inhibited | abrogated apoptosis
